This note sets out measurements from ChEMBL document CHEMBL1201862, “PubChem BioAssay data set” (2004).

Broadly, the AC50 is the concentration giving half of the maximal activity seen.

The target in one series is Cytochrome P450 3A4 (Homo sapiens, UniProt P08684).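 Note: CYP3A4 tested as one member of a cytochrome P450 panel screen.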
The target of series [1] is T1, Cytochrome P450 2C9 (Homo sapiens, UniProt P11712).
Series [2] has as its system Vero. Briefly: cells. Particulars: Chlorocebus sabaeus. It is filed as functional.
Another series relates to Escherichia coli. Kind of series: microbe, parasite or virus in culture.
The subject of series [3] is Vero. Briefly: cells. Particulars: Chlorocebus sabaeus. The series is classed as functional, cell-based.
The nature of series [4]: inhibitors of intracellular T. cruzi replication, confirmation, NIH3T3 host cells, beta-gal luminescence (AID 2044).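 Note: intracellular parasites grown in NIH/3T3 mouse fibroblasts as host cells; luminescent beta-galactosidase reporter signal from transgenic T. cruzi replicating inside host cells; inhibitors lower the luminescence signal.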 It is filed as functional, cell-based.
Series [5] can be described thus: cytotoxicity toward NIH3T3 fibroblasts, dose response, counter-screen, cell-based, ATP luminescence, mouse fibroblasts (AID 2010).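 Note: cells exposed to compound for about 90 hours before reading.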 The series is classed as functional. (A counterscreen serves to expose hits that act by an unwanted route or on another target.)
In the next series the test system is INS1. Kind of series: beta cell apoptosis inhibitors, cytokine rescue, dose response, luminescence, retest (AID 449756).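 Note: cell death triggered by IL-1 beta plus TNF-alpha plus IFN-gamma mixture; protective hits raise ATP signal compared with cytokine alone wells.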 It is filed as functional, cell-based. Conditions: Rattus norvegicus.
Series [6] addresses T2, Serine/threonine-protein phosphatase (Candida dubliniensis (strain CD36 / CBS 7987 / NCPF 3949 / NRRLY-17841) (Yeast), UniProt B9W6M3).
T2 sequence (B9W6M3 whole entry): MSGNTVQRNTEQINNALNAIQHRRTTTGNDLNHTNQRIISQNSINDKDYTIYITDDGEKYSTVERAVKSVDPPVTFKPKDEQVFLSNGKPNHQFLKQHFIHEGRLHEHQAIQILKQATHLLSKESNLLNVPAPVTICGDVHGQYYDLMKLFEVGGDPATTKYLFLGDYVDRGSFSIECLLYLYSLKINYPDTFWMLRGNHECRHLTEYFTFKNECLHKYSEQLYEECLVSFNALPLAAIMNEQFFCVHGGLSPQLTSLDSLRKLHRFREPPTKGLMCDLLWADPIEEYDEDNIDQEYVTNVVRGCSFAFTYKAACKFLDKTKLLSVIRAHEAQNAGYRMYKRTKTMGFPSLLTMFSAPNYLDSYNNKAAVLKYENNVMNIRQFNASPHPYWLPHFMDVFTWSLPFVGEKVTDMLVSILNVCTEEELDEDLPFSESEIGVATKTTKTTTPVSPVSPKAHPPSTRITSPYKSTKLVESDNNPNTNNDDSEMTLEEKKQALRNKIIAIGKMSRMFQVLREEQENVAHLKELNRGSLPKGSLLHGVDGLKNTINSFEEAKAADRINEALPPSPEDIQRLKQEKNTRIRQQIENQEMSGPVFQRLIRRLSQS
Kind of series: calcineurin pathway inhibitors in yeast reporter, dose response, S. cerevisiae, CDRE-lacZ, luminescence, secondary (AID 2388).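 Note: yeast reporter cells carrying a calcineurin-responsive lacZ construct stimulated with calcium chloride; luminescent beta-galactosidase reporter signal in whole cells rather than isolated phosphatase activity; potency for inhibition where a drop in reporter signal means calcineurin blockade.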 It is filed as functional, cell-based.

A further series concerns Streptococcus. Kind of series: Group A Streptococcus viability loss, dose response, counter-screen for streptokinase expression inhibitor project, luminescence, BacTiterGlo (AID 1915).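 Note: potency for reduction of bacterial viability or growth.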 It is filed as functional, organism-based.
The target of series [7] is ATP-dependent molecular chaperone HSP82 (Candida albicans (strain WO-1) (Yeast), UniProt C4YTQ8). Kind of series: loss of DOC-induced GRE-beta-galactosidase reporter signal, dose response, Hsp90 inhibitor project, S. cerevisiae, luminescence (AID 2400).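 Note: beta-galactosidase luminescence from glucocorticoid response element reporter as proxy for Hsp90 function; inhibitor potency where signal loss means Hsp90 inhibition.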 The series is classed as functional, cell-based.
A short description of series [8]: C. albicans growth with fluconazole, confirmation, fluorescence, retest (AID 2467). It is filed as functional, cell-based.
Series [9] in a line: NIH-3T3 fibroblast cytotoxicity, dose response, cytotoxicity control, cell-based, fluorescence, Alamar Blue, secondary assay (AID 2327).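 Note: NIH-3T3 mouse fibroblasts cultured with fluconazole at 8 µg/mL.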 It is filed as functional. A general note: The colour change of resazurin is a common sign of viable cells or microbes.
For another series, the target named is T3, Streptokinase A (Streptococcus pyogenes serotype M1, UniProt P10520).
T3 sequence (P10520 whole entry): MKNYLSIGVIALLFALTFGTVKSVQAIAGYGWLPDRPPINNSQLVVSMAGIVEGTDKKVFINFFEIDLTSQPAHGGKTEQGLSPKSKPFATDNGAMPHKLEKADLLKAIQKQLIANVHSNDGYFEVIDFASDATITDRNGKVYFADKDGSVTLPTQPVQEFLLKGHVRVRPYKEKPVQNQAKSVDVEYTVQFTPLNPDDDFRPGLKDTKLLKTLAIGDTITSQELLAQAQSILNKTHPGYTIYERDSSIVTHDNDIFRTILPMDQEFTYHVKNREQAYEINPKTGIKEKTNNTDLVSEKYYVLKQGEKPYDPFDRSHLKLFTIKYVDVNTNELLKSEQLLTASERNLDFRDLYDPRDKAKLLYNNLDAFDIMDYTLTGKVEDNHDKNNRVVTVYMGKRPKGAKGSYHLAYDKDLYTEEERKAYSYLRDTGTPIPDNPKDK
Kind of series: S. pyogenes streptokinase expression inhibitors, potency, dose response, plasminogen activation absorbance, OD405 (AID 1914).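 Note: secreted streptokinase activity via plasminogen activation per viability signal from cell pellet.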 The series is classed as functional, Streptococcus pyogenes M1 GAS.

Series [10] deals with Streptococcus sp. 'group A'. Briefly: growth inhibition of control SK(-) GAS strain, dose response, counter-screen for streptokinase expression inhibitor project, luminescence, kanamycin, BacTiterGlo, confirmation (AID 1900). The series is classed as functional, organism-based.
Series [11] is described as follows: microbe, parasite or virus in culture. The series is classed as functional. Particulars: Mycobacterium tuberculosis.
The nature of another series: cells. It is filed as functional.
Series [12] is described as follows: THP-1 cell cytotoxicity, dose response, cytotoxicity control for non-replicating M. tuberculosis project (AID 489025). The series is classed as functional.
Series [13] can be described thus: HepG2 cell cytotoxicity, dose response, cytotoxicity control for non-replicating M. tuberculosis project (AID 489018). It is filed as functional. Particulars: Mycobacterium tuberculosis.
Series [14] deals with T1, Cytochrome P450 2C9. The source holds these as a separate data set.
The next series concerns the target Cytochrome P450 2C19 (Homo sapiens, UniProt P33261). Kind of series: Cytochrome panel assay with activity outcomes. Panel member name: p450-cyp2c19 Compounds with AC50 equal or less than 10 uM are considered active. It is filed as functional. Particulars: read-out: AC50.
For series [15], the target named is T4, Corticotropin-releasing factor receptor 2/Corticotropin-releasing factor-binding protein (Homo sapiens, UniProt P24387+Q13324).
T4 sequence (Q13324 whole entry): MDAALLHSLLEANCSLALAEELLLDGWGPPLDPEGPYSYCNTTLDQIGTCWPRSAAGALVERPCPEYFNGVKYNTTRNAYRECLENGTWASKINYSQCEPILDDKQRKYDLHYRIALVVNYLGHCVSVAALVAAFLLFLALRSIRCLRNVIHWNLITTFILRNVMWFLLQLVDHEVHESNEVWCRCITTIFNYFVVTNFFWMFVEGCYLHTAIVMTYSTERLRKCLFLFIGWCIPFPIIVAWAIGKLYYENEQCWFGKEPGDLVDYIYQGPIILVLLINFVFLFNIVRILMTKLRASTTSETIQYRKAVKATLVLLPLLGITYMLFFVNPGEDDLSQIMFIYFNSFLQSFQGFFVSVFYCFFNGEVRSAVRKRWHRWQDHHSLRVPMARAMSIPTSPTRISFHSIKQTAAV
T4 sequence (P24387 whole entry): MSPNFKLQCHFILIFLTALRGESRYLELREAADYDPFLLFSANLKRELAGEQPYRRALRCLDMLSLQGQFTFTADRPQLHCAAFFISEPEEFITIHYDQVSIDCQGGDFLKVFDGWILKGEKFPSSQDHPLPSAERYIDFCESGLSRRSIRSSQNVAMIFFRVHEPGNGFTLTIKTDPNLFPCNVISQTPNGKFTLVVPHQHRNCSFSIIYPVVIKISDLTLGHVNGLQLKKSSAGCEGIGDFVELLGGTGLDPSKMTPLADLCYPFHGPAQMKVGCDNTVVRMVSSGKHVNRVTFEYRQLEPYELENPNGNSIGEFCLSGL
Kind of series: activators of CRF receptor 2 with binding protein – uHTS hits, confirmation (AID 602473). It is filed as functional. Conditions: read-out: EC50_Mean.

In series [16] the target is T4, Corticotropin-releasing factor receptor 2/Corticotropin-releasing factor-binding protein. Kind of series: Dose Response confirmation of uHTS hits for small molecule antagonists of the CRF-binding protein and CRF-R2 receptor complex. It is filed as functional. Particulars: read-out: IC50_Mean.
Series [17] addresses T5, Polyadenylate-binding protein 1 (Homo sapiens, UniProt P11940). Kind of series: PABP1 MLLE–PAM2 binding inhibitor potency, dose response, biochemical, fluorescence polarization, FITC-PAM2 peptide (AID 602259). Particulars: read-out: IC50_Mean. It is filed as functional.
Series [18] deals with T5, Polyadenylate-binding protein 1. Briefly: PABP1 MLLE–PAM2 interaction inhibitors, dose response, miRNA deadenylation inhibitor project, biochemical, fluorescence polarization, Cy5-PAM2 peptide, secondary (AID 602260). It is filed as functional. Conditions: read-out: IC50_Mean.

Calls of active or inactive are those of the source.

Chain of Cytochrome P450 3A4 (P08684 whole entry): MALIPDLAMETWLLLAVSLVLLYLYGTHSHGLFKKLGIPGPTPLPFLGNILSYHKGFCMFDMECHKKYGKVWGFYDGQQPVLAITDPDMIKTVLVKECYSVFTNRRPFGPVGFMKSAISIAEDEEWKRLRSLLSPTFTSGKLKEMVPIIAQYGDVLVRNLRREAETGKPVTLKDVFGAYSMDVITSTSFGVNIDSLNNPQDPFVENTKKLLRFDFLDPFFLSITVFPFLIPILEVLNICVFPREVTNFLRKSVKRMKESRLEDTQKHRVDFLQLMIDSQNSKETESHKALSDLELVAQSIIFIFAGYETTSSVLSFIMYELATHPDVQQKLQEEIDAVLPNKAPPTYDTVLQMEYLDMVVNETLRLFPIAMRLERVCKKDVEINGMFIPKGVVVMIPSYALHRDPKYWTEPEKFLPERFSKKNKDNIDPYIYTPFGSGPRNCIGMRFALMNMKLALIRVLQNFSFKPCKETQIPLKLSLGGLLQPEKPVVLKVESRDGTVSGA
Chain of ATP-dependent molecular chaperone HSP82 (C4YTQ8 whole entry): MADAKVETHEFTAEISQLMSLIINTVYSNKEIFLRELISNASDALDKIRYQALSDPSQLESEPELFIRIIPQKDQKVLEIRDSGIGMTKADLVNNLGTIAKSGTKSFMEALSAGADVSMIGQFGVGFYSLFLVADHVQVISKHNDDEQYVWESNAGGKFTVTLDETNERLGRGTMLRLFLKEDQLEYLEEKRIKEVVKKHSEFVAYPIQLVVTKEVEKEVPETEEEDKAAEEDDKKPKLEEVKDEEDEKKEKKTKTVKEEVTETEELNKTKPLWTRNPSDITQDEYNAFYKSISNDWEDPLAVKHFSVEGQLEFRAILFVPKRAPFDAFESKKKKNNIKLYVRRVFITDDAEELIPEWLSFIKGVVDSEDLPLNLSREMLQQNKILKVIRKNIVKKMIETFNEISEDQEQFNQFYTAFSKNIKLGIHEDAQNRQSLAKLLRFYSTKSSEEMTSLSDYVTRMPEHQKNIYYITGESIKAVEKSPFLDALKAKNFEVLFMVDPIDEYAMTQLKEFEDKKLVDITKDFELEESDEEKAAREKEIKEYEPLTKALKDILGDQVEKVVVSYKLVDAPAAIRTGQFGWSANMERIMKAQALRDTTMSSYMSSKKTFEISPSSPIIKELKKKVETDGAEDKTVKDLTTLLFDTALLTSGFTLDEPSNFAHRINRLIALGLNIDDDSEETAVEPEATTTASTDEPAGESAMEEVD
T1 sequence (P11712 whole entry): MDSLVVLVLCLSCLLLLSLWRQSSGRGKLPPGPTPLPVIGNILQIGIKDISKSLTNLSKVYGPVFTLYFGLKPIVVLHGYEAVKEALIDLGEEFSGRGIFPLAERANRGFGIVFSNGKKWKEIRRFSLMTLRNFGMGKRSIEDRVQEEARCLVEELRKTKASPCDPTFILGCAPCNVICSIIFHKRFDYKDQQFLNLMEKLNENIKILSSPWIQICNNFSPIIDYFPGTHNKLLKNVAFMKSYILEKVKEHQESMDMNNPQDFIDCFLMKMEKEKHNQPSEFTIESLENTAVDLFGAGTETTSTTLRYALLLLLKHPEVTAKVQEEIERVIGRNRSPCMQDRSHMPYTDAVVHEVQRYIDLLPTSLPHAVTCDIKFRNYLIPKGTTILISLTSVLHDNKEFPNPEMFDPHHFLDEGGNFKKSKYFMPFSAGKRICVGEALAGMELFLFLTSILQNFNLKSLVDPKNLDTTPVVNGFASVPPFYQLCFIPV
T5 sequence (P11940 whole entry): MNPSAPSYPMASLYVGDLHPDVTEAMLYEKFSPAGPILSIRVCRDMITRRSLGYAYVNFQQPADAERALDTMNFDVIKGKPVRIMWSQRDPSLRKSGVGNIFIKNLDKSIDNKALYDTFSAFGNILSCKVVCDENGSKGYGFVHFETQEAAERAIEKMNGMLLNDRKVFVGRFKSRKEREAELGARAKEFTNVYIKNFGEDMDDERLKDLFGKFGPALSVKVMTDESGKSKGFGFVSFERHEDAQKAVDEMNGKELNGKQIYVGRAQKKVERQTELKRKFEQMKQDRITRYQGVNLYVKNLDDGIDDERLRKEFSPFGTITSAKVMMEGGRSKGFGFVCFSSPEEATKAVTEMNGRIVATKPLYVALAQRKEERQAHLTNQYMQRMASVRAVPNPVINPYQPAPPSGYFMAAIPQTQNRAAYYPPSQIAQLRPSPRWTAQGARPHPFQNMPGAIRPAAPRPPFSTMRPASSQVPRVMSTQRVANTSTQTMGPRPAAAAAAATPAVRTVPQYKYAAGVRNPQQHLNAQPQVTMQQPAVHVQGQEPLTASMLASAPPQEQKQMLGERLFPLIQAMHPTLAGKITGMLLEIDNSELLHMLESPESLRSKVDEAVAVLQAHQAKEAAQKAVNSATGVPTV
Chain of Cytochrome P450 2C19 (P33261 whole entry): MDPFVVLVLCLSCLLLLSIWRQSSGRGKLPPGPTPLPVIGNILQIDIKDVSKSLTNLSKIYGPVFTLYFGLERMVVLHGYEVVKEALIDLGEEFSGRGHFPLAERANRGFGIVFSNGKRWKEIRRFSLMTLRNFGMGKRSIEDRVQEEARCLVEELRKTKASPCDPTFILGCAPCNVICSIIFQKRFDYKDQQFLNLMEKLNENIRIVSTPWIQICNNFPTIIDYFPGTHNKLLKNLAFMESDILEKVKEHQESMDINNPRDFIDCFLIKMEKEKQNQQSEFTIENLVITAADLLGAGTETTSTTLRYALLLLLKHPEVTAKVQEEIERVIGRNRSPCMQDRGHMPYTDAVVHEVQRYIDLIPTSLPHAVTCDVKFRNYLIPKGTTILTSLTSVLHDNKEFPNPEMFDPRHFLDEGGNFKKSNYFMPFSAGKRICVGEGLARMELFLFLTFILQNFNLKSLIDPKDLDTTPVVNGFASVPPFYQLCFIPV

Take `CN(C)c1ncc2nc(-c3ccc(F)cc3)c(=O)n(Cc3ccc(F)cc3)c2n1`: the half-maximal activity concentration (AC50) result on Cytochrome P450 3A4 and on Cytochrome P450 2C9 [1] was “inconclusive” throughout.
With `O=C(c1ccc([N+](=O)[O-])o1)N1CCc2ccccc21`, in the series with Vero [2], the CC50 is > 25 µM (active).
In the case of `O=C1CN(S(=O)(=O)c2ccccc2C(F)(F)F)CCN1`, the AC50 with Escherichia coli was 28.5 µM (active).
As to `CCOC(=O)C1C(=O)C=C(c2ccc(C)cc2)CC1c1ccco1` (stereo not drawn), at Cytochrome P450 3A4, the half-maximal activity concentration (AC50) result is recorded as “inconclusive”.
On to `O=S(=O)(c1ccc(Cl)cc1)N1CCN(C(=S)Nc2ccc(F)c(Cl)c2)CC1`, for which the IC50 in the series on Vero [3] is > 25 µM (active). Moreover, the CC50 in the series on Vero [2] was > 25 µM (active).
In the case of `CCOC(=O)c1c(NC(=O)c2c(-c3ccccc3)noc2C)sc(C)c1-c1ccccc1`, the EC50 was 0.805 µM (active) in series [4] and 12.5 µM (active) in series [5]. Also, the IC50 in the series with Vero [3] is < 0.05 µM (active).
Regarding `C=CC/N=c1/scc(-c2ccccc2)n1/N=C/c1ccccn1`, in the series with Vero [3], the IC50 is 0.98 µM (active).
As to `COCCNCC(=O)NC12CC3CC(CC(C3)C1)C2`, in the series with Vero [3], the IC50 is 16.2 µM (active).
For `CCC(=O)NC(c1ccc(C)cc1)c1cc([N+](=O)[O-])c2cccnc2c1O` (stereo not drawn), the EC50 in series [4] is 1.34 µM (active); in series [6], > 180 µM (inactive); in the series with Streptococcus it was 12.7 µM (active); in series [7], > 150 µM (inactive); in series [8], 0.212 µM (active); in series [5], 6.02 µM (active). Further, the EC50 is 21.8 µM (active) in [9], 56.5 µM (active) at Streptokinase A and 1.17 µM (active) in series [10]. The half-maximal activity concentration (AC50) with INS1 was 5.53 µM (active).
As for `CC1=NN(C(=O)c2ccc(Br)cc2)C(O)(c2ccccc2)C1` (stereo not drawn), the CC50 is > 40 µM (active) in [11], 22.1 µM (active) in [12] and > 20 µM (active) in [13]. Moreover, the IC50 in “cells” is 22.4 µM (active).
Regarding `Cc1ccc(S(=O)(=O)Oc2ccc(/C=C(/NC(=O)c3ccccc3)C(=O)Nc3ccccc3)cc2)cc1`, the results for the AC50 entry at Cytochrome P450 3A4, on Cytochrome P450 2C9 [14] and on Cytochrome P450 2C19 were “inconclusive”, 0.316 µM (inconclusive) and 0.316 µM (inconclusive), respectively.
With `CCCCc1ccc(NC(=N)Nc2nc(C)cc(C)n2)cc1`, the EC50 in series [4] is 1.71 µM (active); in series [5], 9.01 µM (active). In addition, the AC50 in the series on INS1 is 4.27 µM (active). Besides, the CC50 in the series on Vero [2] is 7.63 µM (active).
In the case of `CC1C(=O)C(C)C(c2ccc(Br)cc2)NC1c1ccc(Br)cc1` (stereo not drawn), the EC50 is 1.11 µM (active) in series [4] and > 60 µM (not active) in series [5]. Moreover, in the series with Vero [2], the CC50 was > 25 µM (active).
As for `O=C(CCCc1ccccc1)N1CCN(c2ccc([N+](=O)[O-])cc2)CC1`, in series [15], the EC50 is > 53 µM (inactive). The AC50 result at Cytochrome P450 3A4 is “inconclusive”. The IC50 in series [16] was > 47.1 µM (inactive).
Turning to `O=S(=O)(c1ccccc1)N1CCC2(CCN(C(c3ccccc3)c3ccccc3)CC2)CC1`, the AC50 entry on Cytochrome P450 3A4 is given as “inconclusive”.
Consider `CCCCc1c(O)n(-c2ccccc2OC)c(SCC(=O)Nc2cccc3ccccc23)nc1=O`, for which the IC50 in series [17] and in series [18] was > 66 µM (inactive) in each case. The EC50 is > 180 µM (inactive) in series [6], > 160 µM (inactive) in series [7], 2.03 µM (active) in [8] and > 160 µM (inconclusive) in series [9].
In the case of `C=CCn1c(N)nc2ccccc21`, the EC50 in series [6] was > 180 µM (inactive); in [7], > 160 µM (inactive); in series [8] it was 1.55 µM (active); in [9] it was > 160 µM (inactive).
Regarding `O=C(O)C1CCC(=O)N(C2CC2)C1c1ccccc1` (stereo not drawn), the AC50 result at Cytochrome P450 3A4 was “inconclusive”.
`COc1cccc(NC(=O)c2cccc(C(=O)Nc3cccc(OC)c3)n2)c1`: the concentration at half-maximal activity (AC50) in the series on Escherichia coli was 32.4 µM (active).
For `CC(=O)NC1=NN(C(C)=O)C2(S1)C(=O)N(C(C)C)c1ccc(C)cc12` (stereo not drawn), the AC50 with Escherichia coli is > 150 µM (inactive).
